Results published in ChEMBL document CHEMBL3046257, “Response of sweet maize (Zea mays L.) hybrids to halosulfuron” (Crop Prot, 2008).

Columns and labels:
Assay type in all cases: organism-based
[1] = tested on: Zea mays; assay: Toxicity in Zea mays GH2547 (maize) assessed as visible injury at 25 g ai/ha applied shortly post-emergence at three to five-leaf stage using backpack sprayer measured after 14 days; conditions: in vivo, other, 336 h
[2] = tested on: Zea mays; assay: Toxicity in Zea mays GH2298 (maize) assessed as visible injury at 25 g ai/ha applied shortly post-emergence at three to five-leaf stage using backpack sprayer measured after 7 days; conditions: in vivo, other, 168 h
[3] = tested on: Zea mays; assay: Toxicity in Zea mays GSS9299 (maize) assessed as visible injury at 25 g ai/ha applied shortly post-emergence at three to five-leaf stage using backpack sprayer measured after 28 days; conditions: in vivo, other, 672 h
[4] = tested on: Zea mays; assay: Toxicity in Zea mays GG446 (maize) assessed as marketable yield at 25 g ai/ha applied shortly post-emergence at three to five-leaf stage using backpack sprayer (reference value: 20.0 T/ha ); conditions: in vivo, other
[5] = tested on: Zea mays; assay: Toxicity in Zea mays GH2041 (maize) assessed as visible injury at 50 g ai/ha applied shortly post-emergence at three to five-leaf stage using backpack sprayer measured after 14 days; conditions: in vivo, other, 336 h
[6] = tested on: Zea mays; assay: Toxicity in Zea mays GH2298 (maize) assessed as plant height at 50 g ai/ha applied shortly post-emergence at three to five-leaf stage using backpack sprayer measured after 21 days (Rvb =80 cm); conditions: in vivo, other, 504 h
[7] = tested on: Zea mays; assay: Toxicity in Zea mays GH2547 (maize) assessed as plant height at 50 g ai/ha applied shortly post-emergence at three to five-leaf stage using backpack sprayer measured after 21 days (Rvb =80 cm); conditions: in vivo, other, 504 h
[8] = tested on: Zea mays; assay: Toxicity in Zea mays GSS9299 (maize) assessed as marketable yield at 50 g ai/ha applied shortly post-emergence at three to five-leaf stage using backpack sprayer (reference value: 13.2 T/ha ); conditions: in vivo, other
[9] = tested on: Zea mays; assay: Toxicity in Zea mays GH2684 (maize) assessed as visible injury at 50 g ai/ha applied shortly post-emergence at three to five-leaf stage using backpack sprayer measured after 28 days; conditions: in vivo, other, 672 h
[10] = tested on: Zea mays; assay: Toxicity in Zea mays GG446 (maize) assessed as marketable yield at 50 g ai/ha applied shortly post-emergence at three to five-leaf stage using backpack sprayer (reference value: 20.0 T/ha ); conditions: in vivo, other
[11] = tested on: Zea mays; assay: Toxicity in Zea mays GH2684 (maize)assessed as visible injury at 25 g ai/ha applied shortly post-emergence at three to five-leaf stage using backpack sprayer measured after 14 days; conditions: in vivo, other, 336 h
[12] = tested on: Zea mays; assay: Toxicity in Zea mays GG446 (maize) assessed as plant height at 50 g ai/ha applied shortly post-emergence at three to five-leaf stage using backpack sprayer measured after 21 days (reference value: 85 cm); conditions: in vivo, other, 504 h
[13] = tested on: Zea mays; assay: Toxicity in Zea mays GH2547 (maize) assessed as plant height at 25 g ai/ha applied shortly post-emergence at three to five-leaf stage using backpack sprayer measured after 21 days (Rvb =80 cm); conditions: in vivo, other, 504 h
[14] = tested on: Zea mays; assay: Toxicity in Zea mays GH2041 (maize) assessed as visible injury at 25 g ai/ha applied shortly post-emergence at three to five-leaf stage using backpack sprayer measured after 7 days; conditions: in vivo, other, 168 h
[15] = tested on: Zea mays; assay: Toxicity in Zea mays GH2298 (maize) assessed as visible injury at 25 g ai/ha applied shortly post-emergence at three to five-leaf stage using backpack sprayer measured after 28 days; conditions: in vivo, other, 672 h
[16] = tested on: Zea mays; assay: Toxicity in Zea mays GH2547 (maize) assessed as visible injury at 50 g ai/ha applied shortly post-emergence at three to five-leaf stage using backpack sprayer measured after 7 days; conditions: in vivo, other, 168 h
[17] = tested on: Zea mays; assay: Toxicity in Zea mays GSS9299 (maize) assessed as cob size at 50 g ai/ha applied shortly post-emergence at three to five-leaf stage using backpack sprayer (reference value: 292 g); conditions: in vivo, other
[18] = tested on: Zea mays; assay: Toxicity in Zea mays GH2547 (maize) assessed as marketable yield at 25 g ai/ha applied shortly post-emergence at three to five-leaf stage using backpack sprayer (reference value: 16.7 T/ha ); conditions: in vivo, other
[19] = tested on: Zea mays; assay: Toxicity in Zea mays GG214 (maize) assessed as marketable yield at 25 g ai/ha applied shortly post-emergence at three to five-leaf stage using backpack sprayer (reference value: 14.2 T/ha ); conditions: in vivo, other
[20] = tested on: Zea mays; assay: Toxicity in Zea mays GG214 (maize) assessed as cob size at 25 g ai/ha applied shortly post-emergence at three to five-leaf stage using backpack sprayer (reference value: 292 g); conditions: in vivo, other
[21] = tested on: Zea mays; assay: Toxicity in Zea mays GH2684 (maize) assessed as visible injury at 25 g ai/ha applied shortly post-emergence at three to five-leaf stage using backpack sprayer measured after 7 days; conditions: in vivo, other, 168 h
[22] = tested on: Zea mays; assay: Toxicity in Zea mays GG446 (maize) assessed as visible injury at 50 g ai/ha applied shortly post-emergence at three to five-leaf stage using backpack sprayer measured after 14 days; conditions: in vivo, other, 336 h
[23] = tested on: Zea mays; assay: Toxicity in Zea mays GH2547 (maize) assessed as visible injury at 25 g ai/ha applied shortly post-emergence at three to five-leaf stage using backpack sprayer measured after 7 days; conditions: in vivo, other, 168 h
[24] = tested on: Zea mays; assay: Toxicity in Zea mays GH2684 (maize) assessed as marketable yield at 50 g ai/ha applied shortly post-emergence at three to five-leaf stage using backpack sprayer (reference value: 15.5 T/ha ); conditions: in vivo, other
[25] = tested on: Zea mays; assay: Toxicity in Zea mays GH2547 (maize) assessed as visible injury at 50 g ai/ha applied shortly post-emergence at three to five-leaf stage using backpack sprayer measured after 28 days; conditions: in vivo, other, 672 h
[26] = tested on: Zea mays; assay: Toxicity in Zea mays GG214 (maize) assessed as cob size at 50 g ai/ha applied shortly post-emergence at three to five-leaf stage using backpack sprayer (reference value: 292 g); conditions: in vivo, other
[27] = tested on: Zea mays; assay: Toxicity in Zea mays GH2298 (maize) assessed as visible injury at 25 g ai/ha applied shortly post-emergence at three to five-leaf stage using backpack sprayer measured after 14 days; conditions: in vivo, other, 336 h
[28] = tested on: Zea mays; assay: Toxicity in Zea mays Empire (maize) assessed as reduction in marketable yield at 25 g ai/ha applied shortly post-emergence at three to five-leaf stage using backpack sprayer; parameters: scale not given: the % may be the effect or the level left; conditions: in vivo, other
[29] = tested on: Zea mays; assay: Toxicity in Zea mays GH2041 (maize) assessed as visible injury at 50 g ai/ha applied shortly post-emergence at three to five-leaf stage using backpack sprayer measured after 28 days; conditions: in vivo, other, 672 h
[30] = tested on: Zea mays; assay: Toxicity in Zea mays GG214 (maize) assessed as visible injury at 25 g ai/ha applied shortly post-emergence at three to five-leaf stage using backpack sprayer measured after 14 days; conditions: in vivo, other, 336 h
[31] = tested on: Zea mays; assay: Toxicity in Zea mays GG214 (maize) assessed as plant height at 25 g ai/ha applied shortly post-emergence at three to five-leaf stage using backpack sprayer measured after 21 days (Rvb =81 cm); conditions: in vivo, other, 504 h
[32] = tested on: Zea mays; assay: Toxicity in Zea mays GG214 (maize) assessed as visible injury at 50 g ai/ha applied shortly post-emergence at three to five-leaf stage using backpack sprayer measured after 7 days; conditions: in vivo, other, 168 h
[33] = tested on: Zea mays; assay: Toxicity in Zea mays GG446 (maize) assessed as visible injury at 50 g ai/ha applied shortly post-emergence at three to five-leaf stage using backpack sprayer measured after 28 days; conditions: in vivo, other, 672 h

COc1cc(OC)nc(NC(=O)NS(=O)(=O)c2c(C(=O)O)c(Cl)nn2C)n1 [HALOSULFURON]
Activity [1]: 0% | Activity [2]: 3% | Activity [3]: 0% | Crop_yield [4]: 19.3 tons/ha | Activity [5]: 2% | Activity [6]: 76 cm | Activity [7]: 79 cm | Crop_yield [8]: 12.8 tons/ha | Activity [9]: 1% | Crop_yield [10]: 19.6 tons/ha | Activity [11]: 3% | Activity [12]: 82 cm | Activity [13]: 78 cm | Activity [14]: 1% | Activity [15]: 0% | Activity [16]: 2% | Activity [17]: 297 g | Crop_yield [18]: 16.2 tons/ha | Crop_yield [19]: 13.4 tons/ha | Activity [20]: 293 g | Activity [21]: 4% | Activity [22]: 0% | Activity [23]: 1% | Crop_yield [24]: 15.2 tons/ha | Activity [25]: 0% | Activity [26]: 287 g | Activity [27]: 2% | Activity [28]: 14% | Activity [29]: 0% | Activity [30]: 0% | Activity [31]: 77 cm | Activity [32]: 3% | Activity [33]: 0%
